Here are results for four molecules from paper PMC8739956 (Frontiers in Oncology, 2021).

Molecules are shown by their SMILES. Entries after “also recorded” stand apart in the source; their conditions may differ. Like-named read-outs stand apart in the source and are kept apart here.

For data set [1] the following is noted: cited from earlier work.
Data set [2] deals with DLBCL. To be noted: 14-d ibrutinib therapy before TEDDI-R; cited from earlier work.
For data set [3] the following is noted: cited from earlier work. The source holds these as a separate data set.
Details of data set [4]: method as in PMID 32583848. To be noted: cited from earlier work; for Mean CSF (trough concentration): PCNSL patients.
The nature of data set [5]: LC-MS/MS quantification of zanubrutinib in time-matched plasma and CSF samples of patients. Type of data set: in vivo, human. As to conditions: for concentration at 12 h: read-out: Trough CSF concentration. The protocol: Zanubrutinib is absorbed rapidly with a median time to maximum concentration of 2 h. Blood and CSF samples were collected at 2 or 3 h after the oral administration of zanubrutinib at 160 mg. Zanubrutinib administration was performed for more than 7 d. Additional plasma and CSF specimens for trough concentration testing were collected just before zanubrutinib administration (i.e., 12 h after the last zanubrutinib dose). Biological samples were stored at −20°C for a maximum of one month before analysis.
Zanubrutinib in CSF and sodium heparin plasma samples was quantified by LC-MS/MS. Zanubrutinib standard was obtained from Beigene (Beijing, China). Methanol, methanoic acid, and acetonitrile (high-performance liquid chromatography gradient grade) were purchased from Fisher Scientific, USA. Ultrapure water was obtained using a Milli-Q purification system (Millipore, MA, USA). Control plasma and CSF samples for standards and quality control were obtained from patients treated in the department of hematology of PUMCH. The detailed LC-MS/MS procedure is described in the Supplementary Material .
Zanubrutinib solutions were prepared at a concentration of 1 mg/ml in methanol and further diluted with methanol to obtain working solutions at concentrations of 100–1,000,000 pg/ml. Biological samples (50 µl) were mixed with 10 µl of methanol and 100 µl of acetonitrile. The mixed samples were centrifuged at 2,500 rpm for 3 min at room temperature and at 17,500 rpm for 10 min at 2°C–8°C. The supernatant (120 μl) was then injected into the chromatography system at room temperature.
The analytes were analyzed by reverse-phase chromatography using an UPLC XevoTQ-XS system (Waters Corp., Milford, MA, USA) equipped with an ACQUUITY UPLC®BEH C18 column (2.1×50 mm, 1.7 μm; Waters Corp.). The mobile phase consisted of 0.1% formic acid in acetonitrile and ultrapure water. A mass spectrometer was used in positive mode with an electrospray ionization source. Multiple reaction monitoring mode was used to detect analytes and internal standards.
To create a stock solution of zanubrutinib with a concentration of 1 mg/ml, zanubrutinib (4.55 mg) was added to methanol (4.55 ml). The standard working solution and quality control standard solution of zanubrutinib were then obtained by diluting the stock solution to 1 μg/ml with methanol. To establish the standard curve, the blank control samples of plasma and CSF were added into 50-μl EP tubes followed by the addition of 10 μl standard working solution with different concentrations (see the table below).
The concentrations of analytes in CSF and plasma samples were obtained from the calibration curve constructed by plotting the peak area ratio of each analyte to the internal standard against the concentration. The analyte concentrations in the samples were calculated by linear regression.

Data set [6] has as its system diffuse large B-cell lymphoma (DLBCL). The experiment in a line: Clinical response of DLBCL patients (Lugano 2014 / 2005 IELSG criteria). It is filed as in vivo, human. As to conditions: for MRI lesion in the cerebellum: case 5, zanubrutinib monotherapy. On the procedure: Patients with treatment-naive and relapsed/refractory DLBCL were enrolled in this study. […] The exclusion criteria were as follows: severe disease complications or serious comorbidities; active infection; uncontrolled bleeding events; and pregnancy or lactation in women.
The dose of zanubrutinib was fixed at 160 mg twice per day in all patients. Treatment duration and the combined drugs/regimens were decided by the clinicians.
Four regimens were evaluated in this study: Regimen 1, zanubrutinib + rituximab in primary vitreoretinal lymphoma (PVRL) (zanubrutinib at 160 mg twice per day until disease progression or intolerance and rituximab at 375 mg/m^2 every 21 days); Regimen 2, zanubrutinib combined with high-dose methotrexate with or without cytarabine (HD-MTX regimen/MA regimen) in CNSL (methotrexate at 3.5–5.0 g/m^2 d1 and cytarabine at […] every 12 h on d2 and d3, every 21 days per cycle); Regimen 3, zanubrutinib combined with dexamethasone, ifosfamide, carboplatin, and etoposide (DICE) or dexamethasone, cytarabine, and cis-platinum (DHAP) in relapsed and refractory patients every 21 days per cycle as prescribed for the salvage chemotherapy of autologous stem cell transplantation (ASCT); and Regimen 4, zanubrutinib combined with rituximab, cyclophosphamide, epirubicin, vindesine, and prednisone (R-CHOP) for eight cycles as an initial treatment in IVLBCL.
The clinical response was assessed based on the Lugano 2014 Criteria for DBLCL and 2005 IELSG Criteria for PCNSL ([24], [25]). AEs were recorded and assessed according to the Common Terminology Criteria for Adverse Events (CTCAE) v4.0.
Continuous variables were expressed as median and range and compared by Mann–Whitney U-test. Categorical variables were reported as percentages and compared by chi-squared test. The duration of response (DOR) was determined using the Kaplan–Meier method. Statistical analyses were performed with SPSS 25.0 (IBM, NY, USA) or Prism 7.0 (GraphPad, CA, USA). P < 0.05 was considered statistically significant.

Another data set deals with IL-10. Kind of data set: CSF IL-10 concentration during treatment. Type of data set: in vivo, human. To be noted: case 6, zanubrutinib monotherapy for 7 d.
Another data set deals with TMD8. As to conditions: ABC DLBCL lines in vitro (TMD8); cited from earlier work.
On the set-up of data set [7]: method as in package insert. To be noted: ref package insert, cited from earlier work.
Data set [8] concerns DLBCL. To be noted: cited from earlier work.
The next data set has as its system CNSL. To be noted: high risk group, prophylaxis; cited from earlier work.
Where [9] appears, read: relapsed non-GCB DLBCL, phase 2, 41 patients.

Turning to `C=CC(=O)N1CCC[C@@H](n2nc(-c3ccc(Oc4ccccc4)cc3)c3c(N)ncnc32)C1` [Ibrutinib, ibrutinib], in data set [1] (ibrutinib), the Protein binding is reported as 97.3%. The “Patients with disease improvement after monotherapy” value with DLBCL [2] is listed as 94%. The “Mean Plasma” value is 53.7 ng/mL in data set [3] (560mg qd), 217.4 ng/mL in data set [3] (700mg qd) and 875.6 ng/mL in data set [3] (840mg qd).

For the molecule `CC#CC(=O)N1CC[C@@H](n2c(=O)n(-c3ccc(Oc4ccccc4)cc3)c3c(N)ncnc32)C1` [Tirabrutinib], the “Mean CSF (trough concentration)” value was 2.19 ng/mL in data set [4] (320mg qd); 2.19 ± 0.476 ng/mL in data set [4] (320mg qd, listed as tirabrutinib); 14.0 ng/mL in data set [4] (480mg qd); 14.0 ± 8.92 ng/mL in data set [4] (480mg qd, listed as tirabrutinib). For the same molecule, the “Mean Plasma” value in data set [4] (320mg qd) is 16.3 ng/mL; in data set [4] (480mg qd), 77.0 ng/mL.

Consider `C=CC(=O)N1CCC([C@@H]2CCNc3c(C(N)=O)c(-c4ccc(Oc5ccccc5)cc4)nn32)CC1` [Zanubrutinib], for which, in data set [5] (160mg bid), the “Mean CSF” value worked out at 2.94 ng/mL. In addition, in data set [5] (160mg bid), the “Mean Plasma” value is 143.2 ng/mL. Besides, the “Samples with peak CSF concentration above the IC50 values” in data set [5] (22/23 samples) was 95.7%. Also, the “Corrected CSF/plasma ratio” value in data set [5] (corrected for 94% protein binding, entire series, 23 samples) is given as 42.7 ± 27.7%; in data set [5] (corrected for 94% protein binding, entire series, 23 samples, listed as zanubrutinib), 42.7% ± 27.7%. Also, the Mean plasma concentration in [5] (entire series, 23 samples, peak time point 2-3 h after 160 mg oral, 160 mg twice per day) worked out at 143.1906 ± 93.3027 ng/mL. Moreover, the concentration at 2 h amounted to 4.12 ± 2.86 ng/mL in data set [5] (human, CSF, oral, 160 mg, 2 h after administration, 10 samples, read-out: Mean CSF concentration) and 183 ± 91.1 ng/mL in [5] (human, plasma, oral, 160 mg, 2 h after administration, 10 samples, read-out: Mean plasma concentration). For the same molecule, the concentration at 3 h was 2.43 ± 2.03 ng/mL in [5] (human, CSF, oral, 160 mg, 3 h after administration, 13 samples, read-out: Mean CSF concentration) and 126 ± 91.6 ng/mL in data set [5] (human, plasma, oral, 160 mg, 3 h after administration, 13 samples, read-out: Mean plasma concentration). The concentration at 12 h was determined as 0.267 ng/mL in data set [5] (human, CSF, oral, 160 mg, case 1, 12 h after the last dose) and 5.02 ng/mL in [5] (human, CSF, oral, 160 mg, case 3, 12 h after the last dose). Moreover, the Kp at 2 h in [5] (human, CSF/plasma, oral, 160 mg, 2 h after administration, 10 samples, read-out: Corrected CSF/plasma ratio) is 0.412 ± 0.325. Moreover, the Kp at 3 h in data set [5] (human, CSF/plasma, oral, 160 mg, 3 h after administration, 13 samples, read-out: Corrected CSF/plasma ratio) stood at 0.433 ± 0.265. Further, the Kp in data set [5] (human, CSF/plasma, oral, 160 mg, corrected for 94% protein binding, entire series, 23 samples, read-out: Corrected CSF/plasma ratio) is roughly 0.4; in data set [5] (human, CSF/plasma, oral, 160 mg, corrected for 94% protein binding, entire series, read-out: Corrected CSF/plasma ratio, range), 0.086 to 1.06; in [5] (human, CSF/plasma, oral, 160 mg, not corrected for protein binding, read-out: CSF/plasma ratio) it was roughly 0.02; in [5] (human, CSF/plasma, oral, 160 mg, not corrected for protein binding, read-out: CSF/plasma ratio, range), 0.0061 to 0.0583; in data set [5] (human, CSF/plasma, oral, 160 mg, six patients with repeated samples in different cycles, read-out: CSF/plasma ratio, range among patients) it was 0.105 to 0.781. Besides, the “MRI lesion in the cerebellum” value is “shrank and disappeared within three weeks” in data set [6]; “the mass shrank and disappeared” in data set [6] (listed as zanubrutinib). For the same molecule, the “Response to monotherapy as lead-in therapy” value in data set [6] (two relapsed PCNSL cases, monotherapy before combination chemotherapy) is “rapid and dramatic response; also recorded: significant disease control within 14 d”. Further, the “CSF IL-10 concentration” value in the data set on IL-10 is recorded as “dramatically decreased”. Besides, the IC50 in the data set on TMD8 is 0.4 nM. For the same molecule, the Protein binding rate in data set [1] (zanubrutinib, no reference given) is 94%. For the same molecule, the entries for the “Median time to maximum concentration” value in data set [7] and in [7] (listed as zanubrutinib) were 2 h and “approximately 2 h”, respectively. For the same molecule, in the data set on DLBCL [8] (among 75 patients with non-Hodgkin lymphoma (including 23 with DLBCL)), the “Patients who achieved remission” value is 14. Further, the ORR in the data set on DLBCL [8] (relapsed non-GCB DLBCL, phase 2, 41 patients, median follow-up 6.8 months) was 29.3%. Besides, the “AEs leading to treatment discontinuation, patients” value in the data set with DLBCL [8] (setting [9]) is “four”. In the data set with DLBCL [8] (setting [9]), the Complete response rate was 17.1%.

`CN(Cc1cnc2nc(N)nc(N)c2n1)c1ccc(C(=O)N[C@@H](CCC(=O)O)C(=O)O)cc1` [high-dose MTX, methotrexate]: in the data set with CNSL, the CNS relapsing rate was greater than 10%.
